Our source for the MIC values is patent US7223776B2, “Compounds with anti-bacterial activity” (priority 2002, dated 2007).

Each structure is given as a SMILES string.

One assay is described as follows: Anti-bacterial activity: MHK measured against a panel of bacterial strains. It is filed as cell-based. Particulars: in relation to at least one of the listed strains (strain not specified); read-out: MHK. As for the experimental part: The MHK (μg/ml) of those compounds was measured in relation to the following bacterial strains: S. aureus ATCC 29213, S. aureus 16, E. faecalis ATCC 29212, E. faecium vanA E25-1, H. influenzae 11, E. coli ATCC 25922, M. catarrhalis 117, S. pneumoniae ATCC 49619. Examples 5–6, 8, 11–16, 18–26, 30, 44–45, 47–58 have an MHK<=0.125 in relation to at least one of the listed strains.
Turning to `COc1ccc2nccc(C(O)CN3CCC[C@@H](CNCc4ccc5nsnc5c4)C3)c2c1` (mixture of isomers) [Example 6, (3S)-2-(3-{[(Benzo[1,2,5]thiadiazol-5-ylmethyl)-amino]-methyl}-piperidin-1-yl)-(1RS)-(6-methoxy-quinolin-4-yl)-ethanol], the MIC was no more than 0.125 µg/mL.
With `COc1ccc2nccc(C(O)CN3CCC[C@@H](CNCc4ccc5c(c4)NC(=O)CO5)C3)c2c1` (mixture of isomers) [Example 5, (3S)-6-[({1-[2-Hydroxy-2-(6-methoxy-quinolin-4-yl)-ethyl]-piperidin-(3RS)-ylmethyl}-amino)-methyl]-4H-benzo[1,4]oxazin-3-one], the MIC is no more than 0.125 µg/mL.
For the compound `COc1ccc2nccc(C(O)CN3CCC[C@@H](CNCc4ccc5c(c4)OCCCO5)C3)c2c1` (mixture of isomers) [Example 7], the MIC was no more than 0.5 µg/mL.
In the case of `COc1ccc2nccc(C(O)CN3CCC[C@@H](CNCc4ccc5c(c4)OCO5)C3)c2c1` (mixture of isomers) [Example 9, 2-((3S)-{[(2,3-Dihydro-benzo[1,3]dioxo-6-ylmethyl)-amino]-methyl}-piperidin-1-yl)-(1RS)-(6-methoxy-quinolin-4-yl)-ethanol], the MIC was no more than 0.5 µg/mL.
Same read-out and setting: the value for `COc1ccc2nccc(C(O)CN3CCCC(NCc4ccc5c(c4)OCCO5)CC3)c2c1` (racemic) [Example 34] was no more than 0.5 µg/mL.
Consider `COc1ccc2nccc(C(O)CN3CCOC(CNCc4ccc5c(c4)OCCO5)C3)c2c1` (racemic) [Example 61, 2-((2RS)-{[(2,3-Dihydro-benzo[1,4]dioxin-6-ylmethyl)-amino]-methyl}-morpholin-4-yl)-(1RS)-(6-methoxy-quinolin-4-yl)-ethanol], for which the MIC was no more than 0.5 µg/mL.
Regarding `COc1ccc2nccc(CCC3CCC(NCc4ccc5c(c4)NC(=O)CO5)CC3)c2c1` (stereo not shown) [Example 30, 6-({4-[2-(6-Methoxy-quinolin-4-yl)-ethyl]-cyclohexylamino}-methyl)-4H-benzo[1,4]oxazin-3-one], the MIC is no more than 0.125 µg/mL.
For the compound `COc1ccc2ncnc(OCC3CCC(NCc4ccc5c(c4)OCCO5)CC3)c2c1` (stereo not shown) [Example 42, (2,3-Dihydro-benzo[1,4]dioxin-6-ylmethyl)-[4-(6-methoxy-quinazolin-4-yloxymethyl)-cyclohexyl]-amine], the MIC was no more than 0.5 µg/mL.
`COc1ccc2ncnc(OCC3CCC(NCc4cnc5ccccc5n4)CC3)c2c1` (stereo not shown) [Example 43, [4-(6-Methoxy-quinazolin-4-yloxymethyl)-cyclohexyl]-quinoxalin-2-ylmethyl-amine]: the MIC is no more than 0.5 µg/mL.
For `COc1ccc2ncnc(OCC3CCC(NCc4ccc5c(c4)NC(=O)CO5)CC3)c2c1` (stereo not shown) [Example 44, 6-{[4-(6-Methoxy-quinazolin-4-yloxymethyl)-cyclohexylamino]-methyl}-4H-benzo[1,4]oxazin-3-one], the MIC was no more than 0.125 µg/mL.
As to `COc1ccc2ncnc(OCC3CCC(NC/C=C/c4ccccc4)CC3)c2c1` (stereo not shown) [Example 45, [4-(6-Methoxy-quinazolin-4-yloxymethyl)-cyclohexyl]-(3-phenyl-allyl)-amine], the MIC was no more than 0.125 µg/mL.
The same measure, in the same setting: the value for `COc1ccc2ncnc(OCC3CCC(NCC(=O)Nc4ccccn4)CC3)c2c1` (stereo not shown) [Example 46, 2-[4-(6-Methoxy-quinazolin-4-yloxymethyl)-cyclohexylamino]-N-pyridin-2-yl-acetamide] was no more than 0.5 µg/mL.
On the same count and under the same terms, the figure for `COc1ccc2nccc(C(O)CN3CCC=C(CNCc4ccc5c(c4)OCCO5)C3)c2c1` (stereo not shown) [Example 59, 2-(5-{[(2,3-Dihydro-benzo[1,4]dioxin-6-ylmethyl)-amino]-methyl}-3,6-dihydro-2H-pyridin-1-yl)-1-(6-methoxy-quinolin-4-yl)-ethanol] is no more than 0.5 µg/mL.

The assay is the same for the next values; noted with them: read-out: MHK.
In the case of `COc1ccc2nccc([C@@H](O)CN3CCC[C@@H](CNCc4ccc5c(c4)OCCO5)C3)c2c1` [Example 8, 2-((3S)-{[(2,3-Dihydro-benzo[1,4]dioxin-6-ylmethyl)-amino]-methyl}-piperidin-1-yl)-(1S)-(6-methoxy-quinolin-4-yl)-ethanol], the MIC is no more than 0.125 µg/mL.
`COc1ccc2ncnc(CCC3(O)CCC(NCc4ccc5c(c4)OCO5)CC3)c2c1` (stereo not shown) [Example 10, 4-[(Benzo[1.3]dioxol-5-ylmethyl)-amino]-1-[2-(6-methoxy-quinazolin-4-yl)-ethyl]-cyclohexanol]: the MIC was no more than 0.5 µg/mL.
As for `CCOc1ccc2nccc(CCC3(O)CCC(NCc4ccc5c(c4)OCO5)CC3)c2c1` (stereo not shown) [Example 17], the MIC was no more than 0.5 µg/mL.
